Data taken from patent US20240116985A1, “STAPLED PEPTIDES AND METHODS THEREOF” (priority 2020, published 2024).

Tests used:
[1] = biological target: T1, full-length B-Catenin (Uniprot ID P35222) (Homo sapiens, UniProt P35222); assay: Alphascreen binding assay (beta-catenin / biotin-TCF4 10-53)
T1 construct: 65 nM full-length B-Catenin (Uniprot ID P35222)
T1 sequence (P35222 1-781): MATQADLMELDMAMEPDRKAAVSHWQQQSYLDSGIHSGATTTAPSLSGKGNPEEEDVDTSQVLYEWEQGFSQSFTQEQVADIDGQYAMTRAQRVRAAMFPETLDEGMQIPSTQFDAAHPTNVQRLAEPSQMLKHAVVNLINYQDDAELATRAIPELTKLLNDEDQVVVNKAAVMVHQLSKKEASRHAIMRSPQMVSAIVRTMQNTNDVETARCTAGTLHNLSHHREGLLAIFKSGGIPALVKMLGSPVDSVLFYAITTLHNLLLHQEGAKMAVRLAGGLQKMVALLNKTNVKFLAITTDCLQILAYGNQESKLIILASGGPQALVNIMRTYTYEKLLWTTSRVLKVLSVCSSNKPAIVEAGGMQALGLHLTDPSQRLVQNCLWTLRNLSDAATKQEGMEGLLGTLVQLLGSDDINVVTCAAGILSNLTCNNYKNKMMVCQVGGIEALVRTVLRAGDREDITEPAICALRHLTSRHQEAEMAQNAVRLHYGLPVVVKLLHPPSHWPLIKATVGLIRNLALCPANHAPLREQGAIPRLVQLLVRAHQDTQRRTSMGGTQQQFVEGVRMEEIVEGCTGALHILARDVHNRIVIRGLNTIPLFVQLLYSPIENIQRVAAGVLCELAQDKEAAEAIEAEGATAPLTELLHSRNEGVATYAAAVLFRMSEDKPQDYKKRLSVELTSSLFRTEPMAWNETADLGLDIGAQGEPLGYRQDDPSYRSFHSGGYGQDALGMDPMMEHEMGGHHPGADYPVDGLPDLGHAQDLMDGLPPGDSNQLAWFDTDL
How it was run: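 AlphaScreen (Ni-chelate beads) competition in 50 mM Tris pH 8.0, 250 mM NaCl with detergents and 0.1% BSA. Peptide titrated 10 uM–5 nM against 65 nM human β-catenin bound to 10 nM biotinylated TCF4 10-53, 15 min then 60 min with beads, both at 20 °C; 1:1 Hill-slope fit.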

CHI Log D procedure = type: physicochemical; conditions: for CHI Log D: pH 7.4; for chromatographic logD: pH 7.4, CHI Log D

Row | EC50 [1] [µM] | CHI Log D (CHI Log D procedure) | chromatographic logD (CHI Log D procedure) | SMILES
1 | 1.4 | 2.088 | – | CC(=O)N1CCC[C@]12CC=CCCCC1(CCCC=CCCCCCC[C@@](C)(C(=O)N[C@@H](Cc3ccccc3)C(=O)N[C@@H](Cc3c[nH]c4ccccc34)C(=O)N[C@@H](CCC(N)=O)C(N)=O)NC(=O)[C@H](C(C)C)NC(=O)[C@H](Cc3cc(F)c(F)c(F)c3)NC(=O)[C@H](C)NC(=O)[C@H](C)NC(=O)[C@H](CCC(=O)O)NC(=O)[C@H](CC(=O)O)NC1=O)NC(=O)[C@H](C)NC(=O)[C@H](CC(=O)O)NC2=O (stereo partly drawn) [I-209, Ac-PL3-Asp-Ala-B5-Asp-Glu-Ala-Ala-345FF-Val-S8-Phe-Trp-Gln-NH2]
2 | 2.17 | 1.23 | – | CC(=O)NC(C)(C)C(=O)N[C@@H](CC(=O)O)C(=O)N[C@@H](C)C(=O)N[C@]1(C)CCCCCCC=CCOC(=O)N2CC[C@@](C(=O)N[C@@H](Cc3ccccc3)C(=O)N[C@@H](Cc3c[nH]c4ccccc34)C(=O)N[C@@H](CCC(N)=O)C(N)=O)(C2)NC(=O)[C@H](C(C)C)NC(=O)[C@H](Cc2ccccc2)NC(=O)[C@H](C)NC(=O)[C@H](C)NC(=O)[C@H](CCC(=O)O)NC(=O)[C@H](CC(=O)O)NC1=O [I-158, Ac-Aib-Asp-Ala-R8-Asp-Glu-Ala-Ala-Phe-Val-PyrS-Phe-Trp-Gln-NH2]
3 | 1.91 | – | 2.94 | CC(=O)N1CCC[C@]12CC=CCCCC1(CCCC=CCCCCCC[C@@](C)(C(=O)N[C@@H](Cc3ccccc3)C(=O)N[C@@H](Cc3csc4ccccc34)C(=O)N[C@@H](C)C(N)=O)NC(=O)[C@H](CCC(N)=O)NC(=O)[C@H](Cc3ccccc3)NC(=O)[C@H](C)NC(=O)[C@H](C)NC(=O)[C@H](Cc3ccc4ccccc4c3)NC(=O)[C@H](CC(=O)O)NC1=O)NC(=O)[C@H](C)NC(=O)[C@H](CC(=O)O)NC2=O (stereo partly drawn) [I-296, Ac-PL3-Asp-Ala-B5-Asp-2NapA-Ala-Ala-Phe-Gln-S8-Phe-BztA-Ala-NH2]
4 | 5.81 | – | 3.29 | CC(=O)N1CCC[C@]12CC=CCCCC1(CCCC=CCCCCCC[C@@](C)(C(=O)N[C@@H](Cc3ccccc3)C(=O)N[C@@H](Cc3csc4ccccc34)C(=O)N[C@@H](CCC(N)=O)C(N)=O)NC(=O)[C@H](C(C)C)NC(=O)[C@H](Cc3ccccc3)NC(=O)[C@H](C)NC(=O)[C@H](C)NC(=O)[C@H](Cc3ccc4ccccc4c3)NC(=O)[C@H](CC(=O)O)NC1=O)NC(=O)[C@H](C)NC(=O)[C@H](CC(=O)O)NC2=O (stereo partly drawn) [I-297, Ac-PL3-Asp-Ala-B5-Asp-2NapA-Ala-Ala-Phe-Val-S8-Phe-BztA-Gln-NH2]
5 | 3.86 | – | 2.78 | CC(=O)N1CCC[C@]12CC=CCCCC1(CCCC=CCCCCCC[C@@](C)(C(=O)N[C@@H](Cc3ccccc3)C(=O)N[C@@H](Cc3csc4ccccc34)C(=O)N[C@@H](CCC(N)=O)C(N)=O)NC(=O)[C@H](CO)NC(=O)[C@H](Cc3ccccc3)NC(=O)[C@H](C)NC(=O)[C@H](C)NC(=O)[C@H](Cc3ccc4ccccc4c3)NC(=O)[C@H](CC(=O)O)NC1=O)NC(=O)[C@H](C)NC(=O)[C@H](CC(=O)O)NC2=O (stereo partly drawn) [I-298, Ac-PL3-Asp-Ala-B5-Asp-2NapA-Ala-Ala-Phe-Ser-S8-Phe-BztA-Gln-NH2]
6 | 6.53 | – | 3.02 | CC(=O)N1CCC[C@]12CC=CCCCC1(CCCC=CCCCCCC[C@@](C)(C(=O)N[C@@H](Cc3ccccc3)C(=O)N[C@@H](Cc3c[nH]c4ccccc34)C(=O)N[C@@H](CCC(N)=O)C(N)=O)NC(=O)[C@H](C(C)C)NC(=O)[C@H](Cc3ccccc3)NC(=O)[C@H](C)NC(=O)[C@H](C)NC(=O)[C@H](Cc3csc4ccccc34)NC(=O)[C@H](CC(=O)O)NC1=O)NC(=O)[C@H](C)NC(=O)[C@H](CC(=O)O)NC2=O (stereo partly drawn) [I-231, Ac-PL3-Asp-Ala-B5-Asp-BztA-Ala-Ala-Phe-Val-S8-Phe-Trp-Gln-NH2]
7 | 1.24 | 2.226 | – | CC(=O)N1CCC[C@]12CC=CCCCC1(CCCC=CCCCCCC[C@@](C)(C(=O)N[C@@H](Cc3cccc(Cl)c3)C(=O)N[C@@H](Cc3c[nH]c4ccccc34)C(=O)N[C@@H](CCC(N)=O)C(N)=O)NC(=O)[C@H](C(C)C)NC(=O)[C@H](Cc3ccccc3)NC(=O)[C@H](C)NC(=O)[C@H](C)NC(=O)[C@H](CC(=O)O)NC(=O)[C@H](CC(=O)O)NC1=O)NC(=O)[C@H](C)NC(=O)[C@H](CC(=O)O)NC2=O (stereo partly drawn) [I-311, Ac-PL3-Asp-Ala-B5-Asp-Asp-Ala-Ala-Phe-Val-S8-3C1F-Trp-Gln-NH2]
8 | 1.01 | – | 2.46 | CC(=O)N1CCC[C@]12CC=CCCCC1(CCCC=CCCCCCC[C@@](C)(C(=O)N[C@@H](Cc3ccccc3)C(=O)N[C@@H](Cc3c[nH]c4ccccc34)C(=O)N[C@@H](CCC(N)=O)C(N)=O)NC(=O)[C@H](C(C)C)NC(=O)[C@H](Cc3ccccc3)NC(=O)[C@H](C)NC(=O)[C@H](C)NC(=O)[C@H](Cc3ccncc3)NC(=O)[C@H](CC(=O)O)NC1=O)NC(=O)[C@H](C)NC(=O)[C@H](CC(=O)O)NC2=O (stereo partly drawn) [I-272, Ac-PL3-Asp-Ala-B5-Asp-4PyrA-Ala-Ala-Phe-Val-S8-Phe-Trp-Gln-NH2]

Further lines, the compound ahead of its results:

Row | SMILES | EC50 [1] [µM] | CHI Log D (CHI Log D procedure) | chromatographic logD (CHI Log D procedure)
9 | CC(=O)N[C@@H](Cc1ccccc1)C(=O)N[C@@H](CC(=O)O)C(=O)N[C@@H](C)C(=O)N[C@]1(C)CCCCCCC=CCOC(=O)N2CC[C@@](C(=O)N[C@@H](Cc3ccc(C(=O)O)cc3)C(=O)N[C@@H](Cc3c[nH]c4ccccc34)C(=O)N[C@@H](CCC(N)=O)C(N)=O)(C2)NC(=O)[C@H](C(C)C)NC(=O)[C@H](Cc2ccccc2)NC(=O)[C@H](C)NC(=O)[C@H](C)NC(=O)[C@H](CC(=O)O)NC(=O)[C@H](CC(=O)O)NC1=O [I-111, Ac-Phe-Asp-Ala-R8-Asp-Asp-Ala-Ala-Phe-Val-PyrS-4COOHF-Trp-Gln-NH2] | 7.64 | 0.779 | –
10 | CC(=O)N1CCC[C@]12CC=CCCCC1(CCCC=CCOC(=O)N(C)CCC[C@@](C)(C(=O)N[C@@H](Cc3ccccc3)C(=O)N[C@@H](Cc3c[nH]c4ccccc34)C(=O)N[C@@H](CCC(N)=O)C(N)=O)NC(=O)[C@H](C(C)C)NC(=O)[C@H](Cc3ccccc3)NC(=O)[C@H](C)NC(=O)[C@H](C)NC(=O)[C@H](CC(=O)O)NC(=O)[C@H](CC(=O)O)NC1=O)NC(=O)[C@H](C)NC(=O)[C@H](CC(=O)O)NC2=O (stereo partly drawn) [I-53, Ac-PL3-Asp-Ala-B5-Asp-Asp-Ala-Ala-Phe-Val-SeN-Phe-Trp-Gln-NH2] | 1.14 | 1.307 | –
11 | CC(=O)N[C@@H](Cc1ccccc1)C(=O)N[C@@H](CC(=O)O)C(=O)N[C@@H](C)C(=O)N[C@]1(C)CCCCCCC=CCOC(=O)N2CC[C@@](C(=O)N[C@@H](CC3CCCC3)C(=O)N[C@@H](Cc3c[nH]c4ccccc34)C(=O)N[C@@H](CCC(N)=O)C(N)=O)(C2)NC(=O)[C@H](C(C)C)NC(=O)[C@H](Cc2ccccc2)NC(=O)[C@H](C)NC(=O)[C@H](C)NC(=O)[C@H](CC(=O)O)NC(=O)[C@H](CC(=O)O)NC1=O (single isomer, unassigned) [I-94, Ac-Phe-Asp-Ala-R8-Asp-Asp-Ala-Ala-Phe-Val-PyrS-CypA-Trp-Gln-NH2] | 7.01 | 1.409 | –
12 | CC(=O)N[C@@H](Cc1ccccc1)C(=O)N[C@@H](CC(=O)O)C(=O)N[C@@H](C)C(=O)N[C@]1(C)CCCCCCC=CCOC(=O)N2CC[C@@](C(=O)N[C@@H](Cc3ccccc3)C(=O)N[C@@H](Cc3c[nH]c4ccccc34)C(=O)N[C@@H](CCC(N)=O)C(N)=O)(C2)NC(=O)[C@H](C(C)C)NC(=O)[C@H](Cc2ccc3ccccc3c2)NC(=O)[C@H](C)NC(=O)[C@H](C)NC(=O)[C@H](CC(=O)O)NC(=O)[C@H](CC(=O)O)NC1=O [I-113, Ac-Phe-Asp-Ala-R8-Asp-Asp-Ala-Ala-2NapA-Val-PyrS-Phe-Trp-Gln-NH2] | 6.2 | 1.435 | –
13 | COc1cccc(C[C@@H]2NC(=O)[C@H](C)NC(=O)[C@H](C)NC(=O)[C@H](CC(=O)O)NC(=O)[C@H](CC(=O)O)NC(=O)[C@](C)(NC(=O)[C@H](C)NC(=O)[C@H](CC(=O)O)NC(=O)[C@H](Cc3ccccc3)NC(C)=O)CCCCCCC=CCOC(=O)N3CC[C@@](C(=O)N[C@@H](Cc4ccccc4)C(=O)N[C@@H](Cc4c[nH]c5ccccc45)C(=O)N[C@@H](CCC(N)=O)C(N)=O)(C3)NC(=O)[C@H](C(C)C)NC2=O)c1 [I-104, Ac-Phe-Asp-Ala-R8-Asp-Asp-Ala-Ala-3OMeF-Val-PyrS-Phe-Trp-Gln-NH2] | 6.17 | 1.333 | –
14 | CC[C@H](C)[C@H](NC(=O)[C@H](CC(=O)O)NC(=O)[C@H](C)NC(C)=O)C(=O)N[C@]1(C)CCN(C)C(=O)OCC=CCCCCC[C@@](C)(C(=O)N[C@@H](Cc2ccccc2)C(=O)N[C@@H](Cc2c[nH]c3ccccc23)C(=O)N[C@@H](Cc2c[nH]cn2)C(N)=O)NC(=O)[C@H](CCC(N)=O)NC(=O)[C@H](Cc2ccccc2)NC(=O)[C@H](C)NC(=O)[C@H](C)NC(=O)[C@H](CC(=O)O)NC(=O)[C@H](CC(=O)O)NC1=O [I-65, Ac-Ala-Asp-Ile-RdN-Asp-Asp-Ala-Ala-Phe-Gln-S7-Phe-Trp-His-NH2] | 2.08 | 1.274 | –
